Starred links: 1 amine or outer side, 2 acyl side, 3 side chain; linkers in the order of their positions; H or OH if unused. Positions of bridges follow the written chain, without caps; N, C: chain ends. Non-standard residues stand in square brackets, D forms with d. Residues, ends and D or L forms follow the SMILES beside them. Groups on a side chain read outwards from the residue. *: point of attachment. Trp(1-CH2CO2Me) = COC(=O)Cn1cc(C[C@H](N)C(=O)O)c2ccccc21; Trp(1-CH2COOH) = N[C@@H](Cc1cn(CC(=O)O)c2ccccc12)C(=O)O; NH(benzothiophen-5-yl) = c1cc2cc(N*)ccc2s1; X79 = CCn1c2ccccc2c2cc(NC(=S)*)ccc21; X13 = O=[N+]([O-])c1ccc(NC(=S)*)cc1; X1 = S=C(Nc1ccc2c(c1)Cc1ccccc1-2)*; Hyp = O=C(O)[C@@H]1C[C@@H](O)CN1; X10 = S=C(Nc1ccc(N2CCOCC2)cc1)*; X44 = FC(F)(F)c1ccc(NC(=S)*)cc1; NMeNle = CCCC[C@H](NC)C(=O)O; X52 = c1ccc2c(N*)c[nH]c2c1; X59 = S=C(Nc1ccc2nsnc2c1)*; X86 = CCOc1ccc(NC(=S)*)cc1; NMeA = CN[C@@H](C)C(=O)O; Dab = NCC[C@H](N)C(=O)O; Dap = NC[C@H](N)C(=O)O; CO = O=C([*:1])[*:2]
What follows are compounds tested against T1, PD-1/PD-L1 (Homo sapiens, UniProt Q9NZQ7) (assay: PD-1/PD-L1 Homogenous Time-Resolved Fluorescence (HTRF) binding assay). Details: PD-L1-His 10 nM pre-incubated with inhibitor, PD-1-Ig 20 nM; read-out: HTRF IC50.
T1 construct: TVMV protease site linker (C); made in house; host or cells: HEK293T cells
In short: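 HTRF read-out using europium cryptate anti-Ig (1 nM) and APC anti-His (20 nM) on extracellular-domain fusion proteins in dPBS/0.1% BSA/0.05% Tween-20. Inhibitor first incubated 15 min with 10 nM PD-L1-His, followed by 20 nM PD-1-Ig for another 15 min.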

T1 sequence (Q9NZQ7 18-239): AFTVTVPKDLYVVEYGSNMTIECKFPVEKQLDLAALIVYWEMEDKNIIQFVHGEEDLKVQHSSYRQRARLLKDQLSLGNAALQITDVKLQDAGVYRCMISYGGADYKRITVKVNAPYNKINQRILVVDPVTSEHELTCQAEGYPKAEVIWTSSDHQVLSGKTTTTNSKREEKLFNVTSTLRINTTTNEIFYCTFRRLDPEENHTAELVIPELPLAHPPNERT

SMILES | IC50
CCCC[C@H]1C(=O)N(C)[C@@H](CCCC)C(=O)N[C@@H](CC(C)C)C(=O)N[C@H](C(=O)NCC(N)=O)CSCC(=O)N[C@@H](Cc2ccc(O)cc2)C(=O)N(C)[C@@H](C)C(=O)N[C@@H](CC(N)=O)C(=O)N2CCC[C@H]2C(=O)N[C@@H](CNC(=S)Nc2ccc(OCC)cc2)C(=O)N[C@@H](CC(C)C)C(=O)N2C[C@H](O)C[C@H]2C(=O)N[C@@H](Cc2c[nH]c3ccccc23)C(=O)N[C@@H](CCN)C(=O)N[C@@H](Cc2cn(CC(=O)O)c3ccccc23)C(=O)N1C [Example 1026] ({CH2CO}-Y[NMeA]NP[Dap](X86)L[Hyp]W[Dab][Trp(1-CH2COOH)][NMeNle][NMeNle]LCG-NH2; thioether N-14) | 4.3 nM
CCCC[C@H]1C(=O)N(C)[C@@H](CCCC)C(=O)N[C@@H](CC(C)C)C(=O)N[C@H](C(=O)NCC(N)=O)CSCC(=O)N[C@@H](Cc2ccc(O)cc2)C(=O)N(C)[C@@H](C)C(=O)N[C@@H](CC(N)=O)C(=O)N2CCC[C@H]2C(=O)N[C@@H](CN)C(=O)N[C@@H](CC(C)C)C(=O)N2C[C@H](O)C[C@H]2C(=O)N[C@@H](Cc2c[nH]c3ccccc23)C(=O)N[C@@H](CCNC(=O)Nc2ccc3sccc3c2)C(=O)N[C@@H](Cc2cn(CC(=O)O)c3ccccc23)C(=O)N1C [Example 3038] ({CH2CO}-Y[NMeA]NP[Dap]L[Hyp]W[Dab]([CO-NH(benzothiophen-5-yl)])[Trp(1-CH2COOH)][NMeNle][NMeNle]LCG-NH2; thioether N-14) | 5.3 nM
CCCC[C@H]1C(=O)N(C)[C@@H](CCCC)C(=O)N[C@@H](CC(C)C)C(=O)N[C@H](C(=O)NCC(N)=O)CSCC(=O)N[C@@H](Cc2ccc(O)cc2)C(=O)N(C)[C@@H](C)C(=O)N[C@@H](CC(N)=O)C(=O)N2CCC[C@H]2C(=O)N[C@@H](CNC(=S)Nc2ccc3nsnc3c2)C(=O)N[C@@H](CC(C)C)C(=O)N2C[C@H](O)C[C@H]2C(=O)N[C@@H](Cc2c[nH]c3ccccc23)C(=O)N[C@@H](CCNC(=S)Nc2ccc3nsnc3c2)C(=O)N[C@@H](Cc2cn(CC(=O)OC)c3ccccc23)C(=O)N1C [Example 3056] ({CH2CO}-Y[NMeA]NP[Dap](X59)L[Hyp]W[Dab](X59)[Trp(1-CH2CO2Me)][NMeNle][NMeNle]LCG-NH2; thioether N-14) | 5.6 nM
CCCC[C@H]1C(=O)N(C)[C@@H](CCCC)C(=O)N[C@@H](CC(C)C)C(=O)N[C@H](C(=O)NCC(N)=O)CSCC(=O)N[C@@H](Cc2ccc(O)cc2)C(=O)N(C)[C@@H](C)C(=O)N[C@@H](CC(N)=O)C(=O)N2CCC[C@H]2C(=O)N[C@@H](CNC(=S)Nc2ccc3c(c2)c2ccccc2n3CC)C(=O)N[C@@H](CC(C)C)C(=O)N2C[C@H](O)C[C@H]2C(=O)N[C@@H](Cc2c[nH]c3ccccc23)C(=O)N[C@@H](CCNC(=S)Nc2ccc3c(c2)c2ccccc2n3CC)C(=O)N[C@@H](Cc2cn(CC(=O)O)c3ccccc23)C(=O)N1C [Example 2013] ({CH2CO}-Y[NMeA]NP[Dap](X79)L[Hyp]W[Dab](X79)[Trp(1-CH2COOH)][NMeNle][NMeNle]LCG-NH2; thioether N-14) | 8.1 nM
CCCC[C@H]1C(=O)N(C)[C@@H](CCCC)C(=O)N[C@@H](CC(C)C)C(=O)N[C@H](C(=O)NCC(N)=O)CSCC(=O)N[C@@H](Cc2ccc(O)cc2)C(=O)N(C)[C@@H](C)C(=O)N[C@@H](CC(N)=O)C(=O)N2CCC[C@H]2C(=O)N[C@@H](CNC(=O)Nc2ccc3sccc3c2)C(=O)N[C@@H](CC(C)C)C(=O)N2C[C@H](O)C[C@H]2C(=O)N[C@@H](Cc2c[nH]c3ccccc23)C(=O)N[C@@H](CCN)C(=O)N[C@@H](Cc2cn(CC(=O)O)c3ccccc23)C(=O)N1C [Example 3026] ({CH2CO}-Y[NMeA]NP[Dap]([CO-NH(benzothiophen-5-yl)])L[Hyp]W[Dab][Trp(1-CH2COOH)][NMeNle][NMeNle]LCG-NH2; thioether N-14) | 3.3 nM
CCCC[C@H]1C(=O)N(C)[C@@H](CCCC)C(=O)N[C@@H](CC(C)C)C(=O)N[C@H](C(=O)NCC(N)=O)CSCC(=O)N[C@@H](Cc2ccc(O)cc2)C(=O)N(C)[C@@H](C)C(=O)N[C@@H](CC(N)=O)C(=O)N2CCC[C@H]2C(=O)N[C@@H](CNC(=S)Nc2ccc3c(c2)Cc2ccccc2-3)C(=O)N[C@@H](CC(C)C)C(=O)N2C[C@H](O)C[C@H]2C(=O)N[C@@H](Cc2c[nH]c3ccccc23)C(=O)N[C@@H](CCNC(=S)Nc2ccc3c(c2)Cc2ccccc2-3)C(=O)N[C@@H](Cc2cn(CC(=O)O)c3ccccc23)C(=O)N1C [Example 2007] ({CH2CO}-Y[NMeA]NP[Dap](X1)L[Hyp]W[Dab](X1)[Trp(1-CH2COOH)][NMeNle][NMeNle]LCG-NH2; thioether N-14) | 13.3 nM
CCCC[C@H]1C(=O)N(C)[C@@H](CCCC)C(=O)N[C@@H](CC(C)C)C(=O)N[C@H](C(=O)NCC(N)=O)CSCC(=O)N[C@@H](Cc2ccc(O)cc2)C(=O)N(C)[C@@H](C)C(=O)N[C@@H](CC(N)=O)C(=O)N2CCC[C@H]2C(=O)N[C@@H](CNC(=S)Nc2ccc(N3CCOCC3)cc2)C(=O)N[C@@H](CC(C)C)C(=O)N2C[C@H](O)C[C@H]2C(=O)N[C@@H](Cc2c[nH]c3ccccc23)C(=O)N[C@@H](CCN)C(=O)N[C@@H](Cc2cn(CC(=O)OC)c3ccccc23)C(=O)N1C [Example 1053] ({CH2CO}-Y[NMeA]NP[Dap](X10)L[Hyp]W[Dab][Trp(1-CH2CO2Me)][NMeNle][NMeNle]LCG-NH2; thioether N-14) | 3.2 nM

The remaining compounds from weak to strong by IC50, led by results:

IC50 | SMILES
3.2 nM | CCCC[C@H]1C(=O)N(C)[C@@H](CCCC)C(=O)N[C@@H](CC(C)C)C(=O)N[C@H](C(=O)NCC(N)=O)CSCC(=O)N[C@@H](Cc2ccc(O)cc2)C(=O)N(C)[C@@H](C)C(=O)N[C@@H](CC(N)=O)C(=O)N2CCC[C@H]2C(=O)N[C@@H](CNC(=S)Nc2ccc([N+](=O)[O-])cc2)C(=O)N[C@@H](CC(C)C)C(=O)N2C[C@H](O)C[C@H]2C(=O)N[C@@H](Cc2c[nH]c3ccccc23)C(=O)N[C@@H](CCN)C(=O)N[C@@H](Cc2cn(CC(=O)O)c3ccccc23)C(=O)N1C [Example 1024] ({CH2CO}-Y[NMeA]NP[Dap](X13)L[Hyp]W[Dab][Trp(1-CH2COOH)][NMeNle][NMeNle]LCG-NH2; thioether N-14)
2.7 nM | CCCC[C@H]1C(=O)N(C)[C@@H](CCCC)C(=O)N[C@@H](CC(C)C)C(=O)N[C@H](C(=O)NCC(N)=O)CSCC(=O)N[C@@H](Cc2ccc(O)cc2)C(=O)N(C)[C@@H](C)C(=O)N[C@@H](CC(N)=O)C(=O)N2CCC[C@H]2C(=O)N[C@@H](CNC(=O)Nc2c[nH]c3ccccc23)C(=O)N[C@@H](CC(C)C)C(=O)N2C[C@H](O)C[C@H]2C(=O)N[C@@H](Cc2c[nH]c3ccccc23)C(=O)N[C@@H](CCNC(=O)Nc2c[nH]c3ccccc23)C(=O)N[C@@H](Cc2cn(CC(=O)O)c3ccccc23)C(=O)N1C [Example 3060] ({CH2CO}-Y[NMeA]NP[Dap]([CO-X52])L[Hyp]W[Dab]([CO-X52])[Trp(1-CH2COOH)][NMeNle][NMeNle]LCG-NH2; thioether N-14)
2.1 nM | CCCC[C@H]1C(=O)N(C)[C@@H](CCCC)C(=O)N[C@@H](CC(C)C)C(=O)N[C@H](C(=O)NCC(N)=O)CSCC(=O)N[C@@H](Cc2ccc(O)cc2)C(=O)N(C)[C@@H](C)C(=O)N[C@@H](CC(N)=O)C(=O)N2CCC[C@H]2C(=O)N[C@@H](CNC(=S)Nc2ccc(C(F)(F)F)cc2)C(=O)N[C@@H](CC(C)C)C(=O)N2C[C@H](O)C[C@H]2C(=O)N[C@@H](Cc2c[nH]c3ccccc23)C(=O)N[C@@H](CCNC(=S)Nc2ccc(C(F)(F)F)cc2)C(=O)N[C@@H](Cc2cn(CC(=O)O)c3ccccc23)C(=O)N1C [Example 1035] ({CH2CO}-Y[NMeA]NP[Dap](X44)L[Hyp]W[Dab](X44)[Trp(1-CH2COOH)][NMeNle][NMeNle]LCG-NH2; thioether N-14)

Source: patent publication US20220389061A1, “IMMUNOMODULATORS” (priority 2019, published 2022)
